In US9150586B2, “Piperidino-dihydrothienopyrimidine sulfoxides and their use for treating COPD and asthma” (Boehringer Ingelheim International GmbH, priority 2011, dated 2015):
“Also recorded” adds a separate entry of the source.

Legend:
[1] = system: LPS-induced neutrophil influx into bronchoalveolar lavage fluid; assay: LPS-induced lung inflammation model: inhibition of LPS-induced neutrophil influx into bronchoalveolar lavage fluid; type: in vivo, male Wistar rats; conditions: for ED50 (half-maximal effective dose), inhibition of LPS-induced neutrophil influx into BALF: male Wistar rats, oral by gavage, BALF 4 hours after end of LPS exposure, nonlinear fit; for ED50 found in efficacy studies in the rat (restated in dose table): p.o., LPS-induced neutrophil influx
Protocol: The anti-inflammatory activity of Examples 1 and 2 and of Prior art compounds A and D was assessed in an in vivo LPS-induced lung inflammation model in rats.
As a measure of the pharmacological potency of the above mentioned compounds the half-maximal effective dose (ED50) in regard to the inhibition of lipopolysaccharide-induced (LPS-induced) neutrophil influx into the bronchoalveolar lavage fluid (BALF) was determined by assessing the dose response relationship. Bacterial endotoxins (lipopolysaccharides [LPS]) are components of the outer bacterial cell membrane which play an important role in the pathogenesis of infections with gram-negative bacteria. It is known that inhalation of such aerosolized LPS induces a dose-dependent increase in neutrophils to lung tissues and airspaces in rats which may be detected by analyzing the amount of neutrophils in the bronchoalveolar lavage fluid (BALF). However, this dose-dependent increase of neutrophils in the BALF should be diminished in a dose-dependent way in the presence of an effective PDE4-inhibitor.
Male Wistar rats (HanWistar) from an approved local distributor were used for the experiments. The ordered weight of the animals was in the range of 200-250 g. Animals were fasted overnight before the experiment. A total number of 32 animals were used for each experiment. Eight animals (n=8) per dose were used for the treatment groups, […].
The animals of the LPS-control and of the negative control groups received“vehicle only” (“vehicle only” corresponds to 10 ml/kg body weight 0.5% Natrosol solution). The other groups were treated with the different doses of either Example compound 1, Example compound 2, Prior art compound A or Prior art compound D respectively (see Table D).
The amount of compound for the highest concentration tested for each compound was suspended in 10 ml 0.5% Natrosol (Hydroxyethylcellulose) solution and then diluted to the respective concentrations as shown in Table D. The respective compound suspension or “vehicle only” (10 ml/kg body weight 0.5% Natrosol solution) was administered orally by gavage. The resulting doses of the individual compounds corresponded to Table D:
One hour (0.5 hour for Prior art compound A and for Prior art compound D) after compound application (time set to allow for sufficient exposure as guided by prior pharmacokinetic experiments) the animals were exposed to nebulised/aerosolized LPS. The whole body exposure of 12 animals each was performed in a plexi glas chamber. Animals were separated/individualized with perforated metal plates. The aerosol was generated with a commercially available nebuliser (PARI Master+PARI LL nebuliser (Pari GmbH). The concentration of the nebulized LPS-solution was 1 mg/ml air. The duration of the LPS exposure was 30 minutes.
4 hours after the end of LPS exposure animals were anesthetised with Isoflorane and euthanised thereafter by cervical dislocation. The trachea was cannulated and BALF was performed using 2×5 mL lavage buffer (phosphate buffered saline (PBS)+2% BSA).
Determination of neutrophil content of the BALF was performed using an ADVIA 120 blood hemacytometer (Bayer Diagnostics). Neutrophil data were normalised (Positive Control (=LPS treatment alone)=100%, Negative Control (no LPS treatment, administration of “vehicle only”)=0%) and expressed as percent of LPS control. The ED50 was calculated using a nonlinear fit (with the Graph Pad Prism software and a sigmoidal dose response fit).
The ED50-value is the half-maximal effective dosis of the compound in question with respect to its inhibition of an LPS-induced neutrophil influx into BALF. Consequently a very small ED50-value stands for a good capability of the respective compound to prevent neutrophil influx into the lung tissue after LPS exposure and therefore for a good capacity of the respective compound to prevent inflammation of the lung tissue. […]

[2] = Gastric emptying and gastrointestinal transit in conscious rats (barium sulfate test meal); type: in vivo, Wistar rats; conditions: for intestinal transit versus negative control: doses up to 30-fold ED50 dose p.o.
Protocol: In order to evaluate whether the compounds of the present invention lead to gastrointestinal side effects the compounds of the invention have been administered to rats 30 minutes before the rats were fed with a test meal comprising barium sulfate. After that it was tested whether gastric emptying and/or gastrointestinal transit in these rats was affected by the presence of these compounds.
The effects of the compounds Example 1 and Example 2 on gastric emptying and gastrointestinal transit in conscious rats has been investigated as described below. Wistar rats of both sexes weighing 130-160 g (ages: male 7 wk, female 8 wk) were used. The animals are obtained from an approved local distributor, a minimum of four days quarantine is required before use, during which time the animals are maintained under routine animal care procedures. Groups of up to 5 animals are housed in cages in a room with controlled temperature and humidity and a light/dark cycle with the lights on from 6 a.m. to 6 p.m. The animals have access to normal rodent chow and water ad libitum. The animals are transported to the laboratory on the day of experimentation. Gastric emptying as well as small intestinal propulsion are determined using a barium sulfate test meal. Five rats Crl:WI(Han) of each sex (n=10) were used. The animals were deprived of food 17 h prior to the experiment but allowed free access to water.
The drug under investigation (drug was suspended to the concentration of 10 ml/kg body weight in 0.5% Natrosol solution) or the negative control (vehicle alone was given 10 ml/kg body weight) was administered 30 min. (p.o.) before the test meal at doses calculated to be 3-fold, 10-fold or 30-fold the ED50 found in efficacy studies in the rat.
The test meal (suspension of 7.5 g barium sulfate in 10 ml salt-free water) is given orally by gavage at a dose of 2 ml/100 g body weight. Thirty minutes after the administration of the test meal the animals were killed in deep isoflurane anaesthesia by cervical dislocation. The stomach and the intestine were then exposed by laparatomy and removed.
The removed stomach was weighed, then incised, the contents removed and the empty stomach is weighed again.
The length of gut traversed with barium sulfate in relation to the whole length of the gut is determined by direct measurements using a ruler.
The gastric content was calculated from the weight difference between the filled and empty stomach and normalized to 100 g body weight. Thus, an increase in weight difference indicated an impaired gastric emptying, whereas a decrease in weight difference indicated an enhanced gastric emptying.
The length of gut traversed with barium sulphate (as judged by visual inspection) in relation to the whole length of the gut (from the pylorus to the rectum) is determined by direct measurements using a ruler.
Intestinal transit is calculated as the percentage movement of barium sulphate in the intestine in relation to the whole length of the gut. Consequently an increased intestinal transit length indicated an accelerated intestinal transit whereas a decreased intestinal transit length indicated decelerated intestinal transit.
Data are expressed as mean±standard deviation (SD). For each dose, comparisons were performed using an analysis of variance (ANOVA) and a post hoc Dunnett test to compare the various groups to the controls when the ANOVA was significant. p<0.05 was considered significant.

[3] = all tested doses up to 30-fold ED50 dose p.o.

Row | SMILES | ED50 (half-maximal effective dose), inhibition of LPS-induced neutrophil influx into BALF [1] | ED50 found in efficacy studies in the rat (restated in dose table) [1] | gastric emptying versus negative control [2, 3] | intestinal transit versus negative control [2] | gastric emptying versus negative control ([2]; 3-fold ED50 dose p.o., 30 min before test meal) | gastric emptying versus negative control ([2]; 10-fold ED50 dose p.o., 30 min before test meal) | gastric emptying versus negative control ([2]; 30-fold ED50 dose p.o., 30 min before test meal)
1 | [O-][S+]1CCc2nc(N3CCC(c4ccc(Cl)cc4)CC3)nc(NC3(CO)CC3)c21 (stereo not shown) [Prior art compound A, reference compound] | 1.13 mg/kg body weight |  |  |  |  |  | 
2 | [O-][S+]1CCc2nc(N3CCC(c4cccc(Cl)c4)CC3)nc(NC3(CO)CC3)c21 (stereo not shown) [Prior art compound D, reference compound] | 6.66 mg/kg body weight |  |  |  |  |  | 
3 | [O-][S+]1CCc2nc(N3CCC(c4ncc(Cl)cn4)CC3)nc(NC3(CO)CCC3)c21 (single isomer, unassigned) [Example 2] | 0.1 mg/kg body weight | (ED50 = 0.1 mg/kg BW | neither showed a substantially enhanced or impaired gastric emptying; also recorded: no relevant differences | nor a substantially accelerated or decelerated intestinal transit; also recorded: no relevant differences |  |  | 
4 | [O-][S+]1CCc2nc(N3CCC(c4ccc(Cl)cc4)CC3)nc(NC3(CO)CCC3)c21 (single isomer, unassigned) [Example 1] | 0.31 mg/kg body weight | (ED50 = 0.31 mg/kg BW | neither showed a substantially enhanced or impaired gastric emptying | nor a substantially accelerated or decelerated intestinal transit; also recorded: no significant differences | no relevant differences | no relevant differences | only a very moderate enhancement of the weight difference per body weight
